According to article PMC8044163, “Vitamin D and lumisterol derivatives can act on liver X receptors (LXRs)” (Scientific Reports, 2021):
Where two headings read alike, the source gives them in different places.

What was measured:
LXRα = molecular target: T1, LXRα (Homo sapiens, UniProt Q13133); assay: Ligand induced translocation of LXRα to the nucleus, immunofluorescence in HaCaT; assay type: cell-based; conditions: 10^−7 M, 24 h
T1 construct: endogenous in cells; host or cells: HaCaT keratinocytes
T1 sequence (Q13133 1-447): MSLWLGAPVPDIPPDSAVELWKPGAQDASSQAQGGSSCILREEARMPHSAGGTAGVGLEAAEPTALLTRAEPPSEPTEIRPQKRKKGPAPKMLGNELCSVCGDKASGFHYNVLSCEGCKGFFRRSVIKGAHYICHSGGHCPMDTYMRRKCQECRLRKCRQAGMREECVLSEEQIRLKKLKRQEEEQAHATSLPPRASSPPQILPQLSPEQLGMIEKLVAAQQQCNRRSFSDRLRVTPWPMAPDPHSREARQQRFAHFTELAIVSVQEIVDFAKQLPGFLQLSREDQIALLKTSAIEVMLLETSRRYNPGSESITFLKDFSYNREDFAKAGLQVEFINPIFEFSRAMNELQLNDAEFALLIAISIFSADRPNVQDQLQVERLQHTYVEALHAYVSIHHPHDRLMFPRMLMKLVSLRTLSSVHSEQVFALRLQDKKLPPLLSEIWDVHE
Method: (§1) HaCaT cells were plated in DMEM plus 5% cFBS either on a sterile glass cover slip placed in a well of a 6-well plates for immunofluorescence (IF) assays or TPP Petri dishes for image-stream flow cytometry, and treated with 10^–7 M D3- or L3-hydroxyderivatives or 0.1% ethanol (vehicle) as a negative control was added to each well, and the cells were incubated for 12 or 24 h at 37 °C with 5% CO2. For IF the cells were fixed in 4% paraformaldehyde for 15 min, incubated in 0.5% Triton X-100 in phosphate-buffered saline (PBS) for 5 min, and washed 3 times in PBS. After blocking with 2% bovine serum albumin (BSA) in PBS for 1 h at room temperature, the cells were treated with an anti-LXRα antibody (Novus Biologicals, LLC, Centennial, CO) at 1:200 in PBS supplemented with 2% BSA overnight in 4 °C. After washing the slides were incubated with a mouse anti-rabbit IgG-FITC (Santa Cruz Biotechnology, Inc, Dallas, TX) at 1:200 dilution for 1.5 h at 37 °C. After washing the slides were mounted using propidium iodide (PI) (Vector Labs, Burlingame, California) as a nuclear counterstain. The slides were examined using a KEYENCE America BZ-X710 Fluorescence Microscope (Itasca, IL). The images were subsequently analyzed using the JACoP plugin for colocalization analysis with ImageJ[74]. Five separate high-power field (40×) images were converted to grayscale and analyzed for each condition. Manders’ coefficient (M1), calculated using a preset threshold, was used to quantify the degree of colocalization between PI and LXRα with 0 representing no colocalization, and 1 representing perfect colocalization.

VDR = molecular target: T2, VDR (Homo sapiens, UniProt P11473); assay: Translocation of VDR to the nucleus, imaging flow cytometry in HaCaT; assay type: cell-based; conditions: 10^–7 M, 12 h
T2 construct: endogenous in cells; host or cells: HaCaT keratinocytes
T2 sequence (P11473 1-427): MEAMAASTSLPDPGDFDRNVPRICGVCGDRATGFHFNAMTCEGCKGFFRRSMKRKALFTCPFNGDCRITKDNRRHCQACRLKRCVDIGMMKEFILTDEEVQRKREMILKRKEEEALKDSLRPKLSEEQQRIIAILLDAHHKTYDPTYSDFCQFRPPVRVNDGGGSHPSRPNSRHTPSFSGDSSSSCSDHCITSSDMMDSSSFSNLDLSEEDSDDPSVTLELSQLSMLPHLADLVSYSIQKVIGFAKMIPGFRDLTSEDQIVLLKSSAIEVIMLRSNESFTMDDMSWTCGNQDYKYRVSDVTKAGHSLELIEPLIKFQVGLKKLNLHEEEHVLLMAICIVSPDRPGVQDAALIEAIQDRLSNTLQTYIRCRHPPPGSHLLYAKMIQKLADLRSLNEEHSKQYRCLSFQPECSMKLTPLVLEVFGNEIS

LXRα/β = assay: Ligand induced translocation of LXRα/β to the nucleus, imaging flow cytometry in HaCaT; assay type: cell-based, human; conditions: 10^–7 M, 12 h
Method: as §1
For Image Stream II (Amnis, Seattle, WA, USA) cytometer analyses, HaCaT cells were detached and processed as previously described. The cells were fixed with paraformaldehyde and permeabilized in methanol containing buffer[78],[79] and Hoechst stain (r37165, ThermoFisher) and rabbit antibodies to LXRα/β (sc 377260, AF 647, SantaCruz) or VDR (sc-13133, AF 488, SantaCruz) as described previously. Data were analyzed using IDEAS software (Amnis, Seattle, WA, USA).

genes downstream of LXR = assay: qPCR of genes downstream of LXR in murine dermal fibroblasts; assay type: cell-based, mouse; conditions: 10^–7 M, 24 h
Method: All animal studies followed guidelines outlined by the NIH Guide for the Care and Use of Laboratory Animals and protocols were approved by the Institutional Animal Care and Use Committee at the NIEHS or the UAB. The study was carried out in compliance with the ARRIVE guidelines (http://www.nc3rs.org.uk/page.asp?id=1357). Skin samples from newborn C57BL/6 mice were collected at the NIEHS. Dermal fibroblasts were isolated from the skin of newborn mice, 1–2 day old. Briefly, we followed the protocols described previously. The skin was washed in PBS, cut into smaller pieces and incubated in 2.4 U/ml of dispase II (Roche) overnight at 4 °C. The dermis was separated from the epidermis and incubated in 0.1% collagenase (Roche) at 4 °C overnight. Next day, it was cut into smaller pieces and incubated for 1 h in 0.25% Trypsin (CellGrow) at 37 °C. Single cell suspension was prepared by pipetting and draining through a cell strainer. After centrifugation, cell pellets were suspended in DMEM medium containing 10% charcoal-stripped fetal bovine serum (cFBS), mouse fibroblasts growth factor (FGF) and 1% antibiotic, and inoculated into tissue culture dishes (Midwest Scientific, TPP). Cells, in early passages, from different mice were pooled together to provide representative samples for experiments. Fibroblasts were cultured in Petri dishes (10 cm in diameter) in DMEM and 10% cFBS and triplicate semi-confluent cultures were treated as described.
RNA isolated from either fibroblasts, HaCaT cells or brain was submitted for cDNA synthesis (High Capacity cDNA Reverse Transcription Kit with RNase Inhibitor, Applied Biosystems) following the manufacturers’ protocols. RT-PCR was carried out using Cyber green, in triplicates; as previously described. Approximately, 750 ng of cDNA was used for PCR reactions. GAPDH and CIC-B were used as internal controls. Primer sequences are listed in Supplementary Table 27. Data were analyzed using GraphPad Prism statistical software one way ANOVA or t-test, where appropriate; *p < 0.05; **p < 0.01; ***p < 0.001.

LBD of LXRβ = molecular target: T3, LBD of LXRβ (Homo sapiens, UniProt P55055); assay: LanthaScreen TR-FRET LXRβ coactivator assay (LXR binding assay); assay type: biochemical
T3 construct: purchased Thermo Fisher Scientific
T3 sequence (P55055 222-460 limits assumed): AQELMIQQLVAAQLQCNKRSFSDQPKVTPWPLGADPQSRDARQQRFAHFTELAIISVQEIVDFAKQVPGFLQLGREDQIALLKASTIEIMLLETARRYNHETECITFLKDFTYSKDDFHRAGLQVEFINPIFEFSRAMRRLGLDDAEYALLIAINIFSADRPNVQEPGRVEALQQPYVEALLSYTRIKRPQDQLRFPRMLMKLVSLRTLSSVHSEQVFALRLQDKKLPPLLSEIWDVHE
Method: (§2) Binding assays of graded concentrations of vitamin D3 or lumisterol hydroxyderivatives to LXRα/β were performed using the LanthaScreen TR-FRET LXRα/β Coactivator kit (Thermo Fisher Scientific, Inc., Waltham, MA) following the manufacture’s protocol. Briefly, after addition of LXRα/β-LBD to the derivatives, a mixture of peptide (Fluorescein-TRAP220/DRIP-2 for LXRα or Fluorescein-D22 for LXRβ) and antibody (Tb-anti-GST) was added to the reaction followed by incubation in room temperature for 2 h. TR-FRET ratio was calculated by dividing the emission at 520 nm by the emission at 495 nm using Synergy neo2 (BioTek, Winooski, VT).

LBD of LXRα = molecular target: T4, LBD of LXRα (Homo sapiens, UniProt Q13133); assay: LanthaScreen TR-FRET LXRα coactivator assay (LXR binding assay); assay type: biochemical
T4 construct: after addition of LXRα/β-LBD to the derivatives; purchased Thermo Fisher Scientific
T4 sequence (Q13133 209-447 limits assumed): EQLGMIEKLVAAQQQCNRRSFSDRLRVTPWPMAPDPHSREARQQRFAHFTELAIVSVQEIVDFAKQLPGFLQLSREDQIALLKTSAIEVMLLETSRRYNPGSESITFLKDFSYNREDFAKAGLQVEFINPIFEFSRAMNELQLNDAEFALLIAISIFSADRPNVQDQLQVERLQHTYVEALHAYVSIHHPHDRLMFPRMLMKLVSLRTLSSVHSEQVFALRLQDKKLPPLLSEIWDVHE
Method: as §2

[1] = agonist, average values, read-out: LXRβ EC50
[2] = agonist, average values, read-out: LXRα EC50

SMILES: C=C1/C(=C\C=C2/CCC[C@@]3(C)[C@H]2CC[C@@H]3[C@@](C)(O)CCCC(C)C)C[C@@H](O)C[C@@H]1O [1,20(OH)2D3]
- translocation of LXRα to the nucleus (immunofluorescence, Manders' coefficient) (LXRα): induced translocation
- translocation of VDR from the cytoplasm to the nucleus (VDR): increased translocation
- translocation of LXRα/β from the cytoplasm to the nucleus (LXRα/β): increased translocation
- ApoE (apolipoprotein E) expression (genes downstream of LXR): enhanced
- Cyp7a1 expression (genes downstream of LXR): inhibited
- EC50 (LBD of LXRβ; [1]): 270 nM

SMILES: CC(C)CCC[C@](C)(O)[C@H]1CC[C@H]2C3=CC=C4C[C@@H](O)CC[C@]4(C)[C@H]3CC[C@@]21C [20(OH)7DHC, reference compound]
- Abcg5 expression (genes downstream of LXR): stimulated
- Abcg8 expression (genes downstream of LXR): inhibited
- ApoE (apolipoprotein E) expression (genes downstream of LXR): inhibited
- Cyp7a1 expression (genes downstream of LXR): inhibited
- Fas (fatty acid synthase) expression (genes downstream of LXR): stimulated

SMILES: CC(C)CCC[C@](C)(O)[C@H]1CC[C@H]2C3=CC=C4C[C@@H](O)CC[C@@]4(C)[C@@H]3CC[C@@]21C [20(OH)L3]
- translocation of LXRα to the nucleus (immunofluorescence, Manders' coefficient) (LXRα): induced translocation
- translocation of VDR from the cytoplasm to the nucleus (VDR): increased translocation
- translocation of LXRα/β from the cytoplasm to the nucleus (LXRα/β): increased translocation
- EC50 (LBD of LXRα; [2]): 1800 nM
- Abca1 expression (genes downstream of LXR): inhibited
- Abcg8 expression (genes downstream of LXR): inhibited
- ApoE (apolipoprotein E) expression (genes downstream of LXR): inhibited
- Cyp7a1 expression (genes downstream of LXR): inhibited
- Lpl (lipoprotein lipase) expression (genes downstream of LXR): inhibited
- EC50 (LBD of LXRβ; [1]): 21 nM

SMILES: CC(C)CCC(O)C(C)(O)C1CCC2C3=CC=C4CC(O)CCC4(C)C3CCC21C (stereo not drawn) [20,22(OH)2L3]
- translocation of LXRα to the nucleus (immunofluorescence, Manders' coefficient) (LXRα): induced translocation
- translocation of VDR from the cytoplasm to the nucleus (VDR): increased translocation
- translocation of LXRα/β from the cytoplasm to the nucleus (LXRα/β): increased translocation
- EC50 (LBD of LXRα; [2]): 1500 nM
- EC50 (LBD of LXRβ; [1]): 2000 nM

SMILES: C=C1CC[C@H](O)C/C1=C/C=C1\CCC[C@@]2(C)[C@H]1CC[C@@H]2[C@@](C)(O)CCCC(C)(C)O [20,25(OH)2D3]
- EC50 (LBD of LXRα; [2]): 350 nM
- EC50 (LBD of LXRβ; [1]): 2100 nM

SMILES: CC(C)CCC(O)[C@@H](C)[C@H]1CC[C@H]2C3=CC=C4C[C@@H](O)CC[C@@]4(C)[C@@H]3CC[C@]12C (stereo partly drawn) [22(OH)L3]
- EC50 (LBD of LXRα; [2]): 640 nM
- EC50 (LBD of LXRβ; [1]): 14000 nM

SMILES: CC(CC[C@H](O)C(C)C)[C@H]1CC[C@H]2C3=CC=C4C[C@@H](O)CCC4(C)[C@@H]3CC[C@]12C (stereo partly drawn) [24(OH)L3]
- EC50 (LBD of LXRα; [2]): 3600 nM
- EC50 (LBD of LXRβ; [1]): 1300 nM

SMILES: CC(CCCC(C)(C)O)[C@H]1CC[C@H]2C3=CC=C4C[C@@H](O)CC[C@@]4(C)[C@@H]3CC[C@]12C (stereo partly drawn) [25(OH)L3]
- EC50 (LBD of LXRα; [2]): 140 nM
- EC50 (LBD of LXRβ; [1]): 1900 nM

SMILES: C[C@@H](CO)CCC[C@@H](C)[C@H]1CC[C@H]2C3=CC=C4C[C@@H](O)CC[C@@]4(C)[C@@H]3CC[C@]12C [(25R)-27(OH)L3]
- EC50 (LBD of LXRα; [2]): 820 nM
- EC50 (LBD of LXRβ; [1]): 550 nM

SMILES: C[C@H](CO)CCC[C@@H](C)[C@H]1CC[C@H]2C3=CC=C4C[C@@H](O)CC[C@@]4(C)[C@@H]3CC[C@]12C [(25S)-27(OH)L3]
- EC50 (LBD of LXRα; [2]): 26 nM
- EC50 (LBD of LXRβ; [1]): 1.3 nM

SMILES: C=C1CC[C@H](O)C/C1=C/C=C1\CCC[C@]2(C)[C@@H]([C@H](C)CCCC(C)C)CC[C@@H]12 [D3, Vitamin D3, reference compound]
- EC50 (LBD of LXRα): 760 nM
- EC50 (LBD of LXRβ): 890 nM

SMILES: CC(C)CCC[C@@H](C)[C@H]1CC[C@H]2C3=CC=C4C[C@@H](O)CC[C@@]4(C)[C@@H]3CC[C@]12C [L3, lumisterol]
- EC50 (LBD of LXRα; [2]): 250 nM
- EC50 (LBD of LXRβ; [1]): 110 nM
